Measurements reported in patent US7879835B2 (Korea Research Institute of Chemical Technology, priority 2004, dated 2011).

Columns and labels:
[1] = test system: osteoclast (TRAP-positive multinuclear cell) formation; experiment: Inhibitory effect on osteoclast formation (TRAP staining); format: cell-based, mice; conditions: 8 days culture with M-CSF and RANKL, compared to control
Protocol: The inhibitory activities of the alpha-arylmethoxyacrylate derivatives prepared in the above Examples on the proliferation of osteoclasts were examined as follows.
First, a bone marrow sample containing osteoclast pregenitor cells was isolated as follows. After sacrificing 7 to 9 week-old female mice by cervical dislocation, femur and tibia were excised aseptically while removing soft tissues attached thereto, After cutting both ends of the long bones, 1 ml of an enzyme solution containing 0.1% collagenase (Gibco), 0.05% trypsin and 0.5 mM EDTA (Gibco) was injected into the bone marrow cavity at one end using a syringe with a 26-gauge needle, and the bone marrow was then collected. After stirring the recovered bone marrow for 30 min, the precipitated bone marrow cells were collected, and cultured in α-minimum essential medium (α-MEM) supplemented with 10% FBS for 24 hrs. Then, non-adherent cells, which are osteoclast pregenitors, were aliquoted onto a culture plate at a density of 2×10^5 cells per well, and cultured for 8 days in α-MEM supplemented with 20 ng/ml of macrophage-colony stimulating factor (M-CSF, Peprotech, USA), 30 ng/ml RANKL (Peprotech, USA), and 0.3, 1.0 or 3 μM of the compounds of the Examples. Control cells were cultured at the same condition except not adding the compounds of the Examples.
After cell culture for 8 days, the adherent cells were washed with PBS and fixed with citrate-acetate-formaldehyde for 5 min. The fixed cells were incubated at 37° C. for 1 hr in acetate buffer (pH 5.0) containing naphthol AS-BI phosphate, fast Garnet GBC solution and 7 mM tartrate buffer (pH 5.0) to conduct TRAP (tartrate-resistant acid phosphatase) staining.

osteoclasts = experiment: Inhibitory effect on resorption activity of osteoclast (resorption pit area on calcium phosphate-coated plate); format: cell-based, mice; conditions: compared to control
Protocol: After finishing culture, the plate was washed with distilled water, and 50 μl/well of 5% sodium hypochlorite was added to the plate. The plate was let alone for 5 min, washed again with distilled water to remove the adherent cells, and dried at room temperature. Then, the area of formed resorption pits was calculated by means of Image Pro Plus software (Media Cybernetics Ver. 3.0).

[2] = test system: osteoclast pregenitor cells; experiment: Cytotoxicity against osteoclast pregenitor (MTT); format: cell-based, mice; conditions: 48 hrs, absorbance at 550 nm
Protocol: (§1) In order examine the toxicities of the compounds of the Examples against osteoclast pregenitors, pregenitor cells were aliquotted onto a 96-well microplate at a density of 2×10^5 cells per well, treated with 2, 4 and 8 μM of the test compounds, respectively, and cultured for 48 hrs in α-MEM supplemented with 20 ng/ml of M-CSF (Peprotech, USA) using 37° C. incubator (5% CO2). At 3 hrs before the culture was finished, 50 μl of MTT (3-(4,5-dimethylthiazol-2-yl)-2,5-diphenyltetrazolium bromide) solution (50 μg/ml) was added to each well. Upon completion of the cell culture, the supernatant was removed, and the precipitated dye was reacted with 100 μl of isopropanol/0.04 N HCl at room temperature for 30 min to dissolve it. The absorbances of the wells were measured at 550 nm, and the relative absorbance of each well relative to that of the control (set as 100) is shown in Table 6.

MG-63 cells = experiment: Cytotoxicity test against osteoblast (MTT); format: cell-based, human
Protocol: as §1
In order to examine the toxicity of the compounds of the Examples against osteoblasts, human osteosarcoma-derived cell line, MG-63 (ATCC No. CRL-1427) cells were treated with 0.1, 0.3, 1.0 and 3.0 μM of the compounds of the Examples, and cultured in DMEM supplemented with 10% FBS (fetal bovine serum).

Compound | Osteoclast formation inhibitory effects (%) ([1]; 0.3 μM) | Osteoclast formation inhibitory effects (%) ([1]; 1.0 μM) | Osteoclast formation inhibitory effects (%) ([1]; 3.0 μM) | Reduction (%) of the resorption pit area of osteoclasts (osteoclasts; 0.3 uM) | Reduction (%) of the resorption pit area of osteoclasts (osteoclasts; 1 uM) | Reduction (%) of the resorption pit area of osteoclasts (osteoclasts; 3 uM) | relative absorbance relative to that of the control (set as 100), MTT ([2]; 2 uM) | relative absorbance relative to that of the control (set as 100), MTT ([2]; 4 uM) | relative absorbance relative to that of the control (set as 100), MTT ([2]; 8 uM) | relative absorbance relative to that of the control (set as 100), MTT (MG-63 cells; 0.33 uM) | relative absorbance relative to that of the control (set as 100), MTT (MG-63 cells; 1 uM) | relative absorbance relative to that of the control (set as 100), MTT (MG-63 cells; 3 uM) | relative absorbance relative to that of the control (set as 100), MTT (MG-63 cells; 0.11 uM)
CCC(C)Oc1cccc(OCc2ccccc2/C(=C\OC)C(=O)OC)c1 (stereo not drawn) [compound 221] | 39% | 100% | 100% | 94% | 100% | 100% | 96 | 96 | 99 |  |  |  | 
CCCCCCOc1cccc(OCc2ccccc2/C(=C\OC)C(=O)OC)c1 [compound 220] | 100% | 100% | 100% | 42% | 70% | 73% | 89 | 98 | 96 |  |  |  | 
CCCOc1ccc(OCc2ccccc2/C(=C\OC)C(=O)OC)cc1 [compound 192] | 68% | 100% | 100% | 100% | 100% | 100% |  |  |  |  |  |  | 
CCCCCCCCc1cccc(OCc2ccccc2/C(=C\OC)C(=O)OC)c1 [compound 229] | 100% | 100% | 100% | 0.00% | 100% | 100% |  |  |  |  |  |  | 
CO/C=C(/C(=O)OC)c1ccccc1CON=C(C)c1cccc(OCCN2CCOCC2)c1 [compound 20] | 12% | 34% | 100% |  | 26% | 47% |  |  |  | 106 | 106 | 105 | 
C=CCCCCCCOc1cccc(OCc2ccccc2/C(=C\OC)C(=O)OC)c1 [compound 197] | 100% | 100% | 100% | 100% | 100% | 100% |  |  |  | 101 | 111 | 103 | 112
CO/C=C(/C(=O)OC)c1ccccc1COc1ccc(OCC(C)C)cc1 [compound 174] | 35% | 100% | 100% | 100% | 100% | 100% |  |  |  |  |  |  | 
CCC(C)Oc1ccc(OCc2ccccc2/C(=C\OC)C(=O)OC)cc1 (stereo not drawn) [compound 175] | 14% | 100% | 100% | 99% | 100% | 100% |  |  |  |  |  |  | 
CO/C=C(/C(=O)OC)c1ccccc1COc1ccc(C(C)F)cc1 (stereo not drawn) [compound 170] | 81% | 100% | 100% | 0% | 100% | 100% |  |  |  |  |  |  | 
CCCCCCCOc1cccc(OCc2ccccc2/C(=C\OC)C(=O)OC)c1 [compound 201] | 12% | 70% | 100% | 100% | 100% | 100% |  |  |  |  |  |  | 
CO/C=C(/C(=O)OC)c1ccccc1COc1ccc(OC2CCCC2)cc1 [compound 172] | 90% | 100% | 100% | 90% | 100% | 100% |  |  |  |  |  |  | 
CO/C=C(/C(=O)OC)c1ccc(Cl)cc1COc1cccc(CO)c1 [compound 262] | 93% | 100% | 100% | 93% | 100% | 100% |  |  |  |  |  |  | 
CO/C=C(/C(=O)OC)c1ccc(Cl)cc1COc1ccc(OCC=C(C)C)cc1 [compound 269] | 97% | 100% | 100% | 100% | 100% | 100% |  |  |  | 81 | 94 | 88 | 
CCCCCCOc1ccc(OCc2cc(Cl)ccc2/C(=C\OC)C(=O)OC)cc1 [compound 271] | 94% | 100% | 100% | 30% | 94% | 42% |  |  |  | 114 | 79 | 64 | 
